Experimental data from ChEMBL document CHEMBL4393691, “Design, synthesis and antitumor evaluation of novel celastrol derivatives” (Eur J Med Chem, 2019).
Calls of active or inactive are those of the source. No cut-off for these calls is given here.

What was measured:
A549 [1] = assay: Cell cycle arrest in human A549 cells assessed as accumulation at G2 phase at 0.27 uM incubated for 12 hrs by propidium iodide staining based flow cytometry analysis (Rvb=11.7%); type: functional
A549 [2] = assay: Cell cycle arrest in human A549 cells assessed as accumulation at G1 phase at 0.27 uM incubated for 24 hrs by propidium iodide staining based flow cytometry analysis (Rvb=55.3%); type: functional
A549 [3] = assay: Induction of apoptosis in human A549 cells assessed as increase in BAX expression incubated for 8 hrs by western blot analysis; type: functional, cell-based
A549 [4] = assay: Cell cycle arrest in human A549 cells assessed as accumulation at G2 phase at 0.27 uM incubated for 24 hrs by propidium iodide staining based flow cytometry analysis (Rvb=18.01%); type: functional
A549 [5] = assay: Induction of apoptosis in human A549 cells assessed as early apoptotic cells at 0.2 uM incubated for 24 hrs by AnnexinV-FITC/propidium iodide/propidium iodide staining-based flow cytometric analysis (reference value: 4.1%); type: functional
A549 [6] = assay: Cell cycle arrest in human A549 cells assessed as accumulation at G1 phase at 0.06 uM incubated for 12 hrs by propidium iodide staining based flow cytometry analysis (Rvb=49.49%); type: functional
A549 [7] = assay: Induction of apoptosis in human A549 cells assessed as necrotic cells at 1.2 uM incubated for 24 hrs by AnnexinV-FITC/propidium iodide staining-based flow cytometric analysis (reference value: 3.6%); type: functional
A549 [8] = assay: Induction of apoptosis in human A549 cells assessed as late apoptotic cells at 0.8 uM incubated for 24 hrs by AnnexinV-FITC/propidium iodide staining-based flow cytometric analysis (reference value: 4.2%); type: functional
A549 [9] = assay: Cell cycle arrest in human A549 cells assessed as accumulation at G2 phase at 0.06 uM incubated for 24 hrs by propidium iodide staining based flow cytometry analysis (Rvb=18.01%); type: functional
A549 [10] = assay: Induction of apoptosis in human A549 cells assessed as decrease in Cdk4 expression incubated for 8 hrs by western blot analysis; type: functional, cell-based
A549 [11] = assay: Induction of apoptosis in human A549 cells assessed as increase in Fas-L expression at 0.5 to 2 uM incubated for 8 hrs by western blot analysis; type: functional, cell-based
HepG2 = assay: Cytotoxicity against human HepG2 cells assessed as reduction in cell viability incubated for 48 hrs by MTT assay; type: functional, cell-based; conditions: HepG2, 48 h
A549 [12] = assay: Induction of apoptosis in human A549 cells assessed as viable cells at 0.8 uM incubated for 24 hrs by AnnexinV-FITC/propidium iodide staining-based flow cytometric analysis (reference value: 88.1%); type: functional; conditions: A549, 24 h, read-out: Activity
A549 [13] = assay: cells; conditions: Homo sapiens, A549, 48 h
A549 [14] = assay: Induction of apoptosis in human A549 cells assessed as cell shrinkage at 0.06 to 0.18 uM incubated for 48 hrs by Hoechst 33342 staining-based fluorescence microscopy; type: functional
A549 [15] = assay: Induction of apoptosis in human A549 cells assessed as increase in Fas expression at 0.5 to 2 uM incubated for 8 hrs by western blot analysis; type: functional, cell-based
MCF7 = assay: cells; conditions: Homo sapiens, MCF7, 48 h
A549 [16] = assay: Induction of apoptosis in human A549 cells assessed as increase in cleaved caspase8 expression at 0.5 to 2 uM incubated for 8 hrs by western blot analysis; type: functional, cell-based
A549 [17] = assay: Cell cycle arrest in human A549 cells assessed as accumulation at S phase at 0.27 uM incubated for 24 hrs by propidium iodide staining based flow cytometry analysis (Rvb=27.61%); type: functional
A549 [18] = assay: Induction of apoptosis in human A549 cells assessed as necrotic cells at 0.2 uM incubated for 24 hrs by AnnexinV-FITC/propidium iodide staining-based flow cytometric analysis (reference value: 3.6%); type: functional
A549 [19] = assay: Induction of apoptosis in human A549 cells assessed as late apoptotic cells at 0.6 uM incubated for 24 hrs by AnnexinV-FITC/propidium iodide staining-based flow cytometric analysis (reference value: 4.2%); type: functional

`COC(=O)/C=C\c1ccc(OC)c(OCCOC(=O)[C@]2(C)CC[C@]3(C)CC[C@]4(C)C5=CC=C6C(=CC(=O)C(O)=C6C)[C@]5(C)CC[C@@]4(C)[C@@H]3C2)c1` was tested, and the Activity (A549 [1]) was 5.52%, the Activity (A549 [2]) was 68.04% and the Activity (A549 [3]) was “Active”. For the same compound, the Activity (A549 [4]) was 9.56%, the Activity (A549 [5]) was 5.3% and the Activity (A549 [6]) was 52.22%. It also gave an Activity (A549 [7]) of 11.9%, an Activity (A549 [8]) of 43.3% and an Activity (A549 [9]) of 15.7%. The Activity (A549 [10]) was “Dose-dependent effect”, the Activity (A549 [11]) was “Dose-dependent effect” and the IC50 (HepG2) was 260 nM. The viability at 0.8 µM (A549 [12]) was 33.7%, the IC50 (A549 [13]) was 150 nM and the Activity (A549 [14]) was “Active”. For the same compound, the Activity (A549 [15]) was “Dose-dependent effect”, the IC50 (MCF7) was 170 nM and the Activity (A549 [16]) was “Dose-dependent effect”. The Activity (A549 [17]) was 23.55%, the Activity (A549 [18]) was 4.4% and the Activity (A549 [19]) was 27.6%.
